Experimental data taken from patent US4634707A, “5-Pyrimidinecarboxamides and treatment of leukemia and tumors therewith” (Uniroyal Chemical Company, priority 1984, dated 1987).
Values joined by “and” are separate entries in the source; they are usually repeats but may differ in a detail not shown here. Equal values may be shown once.

Legend:
M5076 sarcoma = assay: NCI 3M531, i.p.-implanted M5076 sarcoma; assay type: in vivo, murine (mice); parameters: key to Treated/Control percent: (-): toxic dose
Procedure: (§1) The spectrum of antitumor activity of the compound of Example 1 was determined employing a number of standard National Cancer Institute (NCI) protocols. The antitumor activity was determined in vivo against several different tumors, employing various treatment schedules and routes of administration.
In three experiments involving the i.p. implanted M5076 sarcoma, maximum ILS values of 72, 72 and 48% were achieved after i.p. treatment on days 1, 5, 9 and 13.
(§2) The ratio of the survival time for the treated animals (T) to the survival time for the control animals (C) determined at varying dosages in the respective in vivo tests is set forth in the table: […]

Colon 38 tumor = assay: NCI 3C872, s.c.-implanted colon 38 carcinoma; assay type: in vivo, murine (mice); parameters: key to Treated/Control percent: (-): toxic dose
Procedure: as §1, §2

L1210 leukemia [1] = assay: NCI 3LE37, i.c.-implanted L1210 leukemia; assay type: in vivo, murine (mice); parameters: key to Treated/Control percent: (-): toxic dose
Procedure: as §1, §2

Lewis lung carcinoma = assay: NCI 3LL39, i.v.-implanted Lewis lung carcinoma; assay type: in vivo, murine (mice)
Procedure: as §1, §2

MX-1 mammary tumor = assay: NCI 3MBG5, s.r.c. human mammary carcinoma MX-1 xenograft; assay type: in vivo, human tumor xenograft; parameters: key to Treated/Control percent: (-): toxic dose
Procedure: as §1, §2

B16 melanoma = assay: NCI 3B131, i.p.-implanted B16 melanoma; assay type: in vivo, murine (mice)
Procedure: as §1, §2

P388 leukemia = assay: NCI 3PS31, i.p.-implanted P388 leukemia; assay type: in vivo, murine (mice); parameters: key to Treated/Control percent: (-): toxic dose
Procedure: as §1, §2

L1210 leukemia [2] = assay: NCI 3LE31, i.p.-implanted L1210 lymphoid leukemia; assay type: in vivo, DBA/2 mice
CD8F1 mammary tumor = assay: NCI 3CDJ2, s.c.-implanted staged mammary adenocarcinoma CD8F1; assay type: in vivo, murine (mice); parameters: key to Treated/Control percent: (-): toxic dose
Procedure: as §1, §2

L1210 leukemia [3] = assay: NCI 3LE32, s.c.-implanted L1210 leukemia; assay type: in vivo, murine (mice); parameters: key to Treated/Control percent: (-): toxic dose
Procedure: as §1, §2

L1210 leukemia [4] = assay: Effects of treatment schedule and route of administration against s.c.-implanted L1210 leukemia; assay type: in vivo
Procedure: The influences of treatment schedule and route of administration on the antitumor activity of the compound of Example 1 were evaluated using the s.c. implanted L1210 leukemia system. The drug was tested in the form of a freeze dried dosage form containing 50 mg. of the compound and 100 mg. N-methylglucamine, reconstituted with 5 ml. of sterile water to yield a 10 mg/ml. solution at about pH 9.5.
The percentage increases in life span (%ILS) are shown in the accompanying drawing for different treatment regimens and routes of administration. […] The highest percent ILS was 471 obtained by daily i.p. injections of the active material on a five day schedule of 45 mg/kg/injection, corresponding to a total dose of 225 mg/kg/duration of the treatment (test C in the drawing). This dosage also gave 5 cures.

[5] = 50 mg/kg, stated jointly for i.p. and s.c. L1210 systems
[6] = i.p. L1210, i.p. days 1-9 (Table I)
[7] = s.c. L1210, i.p. days 1-9 (Table I)

O=C(Nc1ccccc1)c1c(O)[nH]c(=S)[nH]c1=O [Example 1, 1,2,3,4-tetrahydro-6-hydroxy-4-oxo-N-phenyl-2-thioxo-5-pyrimidinecarboxamide]
Treated/Control percent (M5076 sarcoma; 12.5 mg/kg): 117% | Treated/Control percent (M5076 sarcoma; 25 mg/kg): 101% and 130% | Treated/Control percent (M5076 sarcoma; 50 mg/kg): 124% and 147% | Treated/Control percent (M5076 sarcoma; 100 mg/kg): 148% and 172% | Treated/Control percent (M5076 sarcoma; 200 mg/kg): (-) | cures/total (M5076 sarcoma; i.p. M5076, Days 1-13): 2/10 | increase in life-span (% ILS) (M5076 sarcoma; i.p. M5076, i.p. treatment on days 1, 5, 9 and 13, maximum values): 72% and 48% | Treated/Control percent (Colon 38 tumor; 56 mg/kg): 70% and 120% | Treated/Control percent (Colon 38 tumor; 225 mg/kg): 51% | Treated/Control percent (Colon 38 tumor; 450 mg/kg): (-) | Treated/Control percent (Colon 38 tumor; 900 mg/kg): (-) | effectiveness (in words) (Colon 38 tumor; s.c. implanted colon 38, experimental conditions employed): ineffective | Treated/Control percent (L1210 leukemia [1]; 12.5 mg/kg): 94% and 106% | Treated/Control percent (L1210 leukemia [1]; 25 mg/kg): 98% | Treated/Control percent (L1210 leukemia [1]; 50 mg/kg): 113% and 108% | Treated/Control percent (L1210 leukemia [1]; 100 mg/kg): 128% and 134% | activity (in words) (L1210 leukemia [1]; 100 mg/kg i.p. daily for 9 days): marginal activity | Treated/Control percent (L1210 leukemia [1]; 200 mg/kg): (-) | increase in life-span (% ILS) (L1210 leukemia [1]; i.c. L1210, 100 mg/kg i.p. daily for 9 days): 28-34% | Treated/Control percent (Lewis lung carcinoma; 12.5 mg/kg): 103% | Treated/Control percent (Lewis lung carcinoma; 25 mg/kg): 106% | Treated/Control percent (Lewis lung carcinoma; 50 mg/kg): 115% | Treated/Control percent (Lewis lung carcinoma; 100 mg/kg): 126% | effectiveness (in words) (Lewis lung carcinoma; i.v. implanted, experimental conditions employed): ineffective | Treated/Control percent (MX-1 mammary tumor; 75 mg/kg): 98% | Treated/Control percent (MX-1 mammary tumor; 150 mg/kg): (-) | Treated/Control percent (MX-1 mammary tumor; 300 mg/kg): (-) | Treated/Control percent (MX-1 mammary tumor; 600 mg/kg): (-) | effectiveness (in words) (MX-1 mammary tumor; s.r.c. xenograft, experimental conditions employed): ineffective | Treated/Control percent (B16 melanoma; 6 mg/kg): 108% | Treated/Control percent (B16 melanoma; 12 mg/kg): 128% | Treated/Control percent (B16 melanoma; 25 mg/kg): 137% and 158% | Treated/Control percent (B16 melanoma; 50 mg/kg): 152% and 169% | Treated/Control percent (B16 melanoma; 100 mg/kg): 185% and 193% | increase in life-span (% ILS) (B16 melanoma; i.p. B16, days 1-9 i.p., optimal values at 100 mg/kg, 100 mg/kg): 93% and 85% | Activity (ILS) (B16 melanoma; over at least a 4-fold dosage range): 25% | Treated/Control percent (P388 leukemia; 3.13 mg/kg): 110% | Treated/Control percent (P388 leukemia; 6.25 mg/kg): 116% | Treated/Control percent (P388 leukemia; 12.5 mg/kg): 120% | Treated/Control percent (P388 leukemia; 25 mg/kg): 145% and 138% | Treated/Control percent (P388 leukemia; 50 mg/kg): 162% and 194% and 201% | Treated/Control percent (P388 leukemia; 100 mg/kg): (-) | Treated/Control percent (P388 leukemia; 200 mg/kg): (-) | increase in life-span (% ILS) (P388 leukemia; i.p. P388, 50 mg/kg i.p. daily, five days, maximum values): 101% and 94% and 62% | activity (in words) (P388 leukemia; standard NCI P388 preliminary screen): good activity | maximum increased life spans (L1210 leukemia [2]; [5]): 87-190% | cures (in words) (L1210 leukemia [2]; 100 mg/kg): produced a number of cures at 100 mg/kg | curative, share of test mice (L1210 leukemia [2]; 100 mg/kg i.p. daily for 9 days, i.p. L1210): at least 50% | toxicity of 100 mg/kg dose (L1210 leukemia [2]; 100 mg/kg i.p. daily for 9 days, i.p. system): occasionally demonstrated some toxicity | activity in i.p.-implanted lymphoid leukemia test (in words) (L1210 leukemia [2]; 3LE31, reproducible T/C of 150% or higher is considered significant activity): exhibited significant activity | response vs control in vivo at 6.25 mg/kg (L1210 leukemia [2]; Mus musculus, L1210, ip, 6.25 mg/kg i.p. daily for nine days, read-out: T/C % (survival time treated/control)): 116% | response vs control in vivo at 12.5 mg/kg (L1210 leukemia [2]; Mus musculus, L1210, ip, 12.5 mg/kg i.p. daily for nine days, read-out: T/C % (survival time treated/control)): 117% | cures/total (L1210 leukemia [2]; [6]): 4/6 and 6/6 | increase in life-span (% ILS) (L1210 leukemia [2]; [6]): > 275% and > 229% | Treated/Control percent (CD8F1 mammary tumor; 56 mg/kg): 61% | Treated/Control percent (CD8F1 mammary tumor; 112 mg/kg): 80% | Treated/Control percent (CD8F1 mammary tumor; 225 mg/kg): (-) | Treated/Control percent (CD8F1 mammary tumor; 450 mg/kg): (-) | Treated/Control percent (CD8F1 mammary tumor; 900 mg/kg): (-) | effectiveness (in words) (CD8F1 mammary tumor; s.c. implanted CD8F1, experimental conditions employed): ineffective | Treated/Control percent (L1210 leukemia [3]; 12.5 mg/kg): 109% and 104% | Treated/Control percent (L1210 leukemia [3]; 25 mg/kg): 108% and 99% | Treated/Control percent (L1210 leukemia [3]; 50 mg/kg): 140% and 127% | maximum increased life spans (L1210 leukemia [3]; [5]): 87-190% | Treated/Control percent (L1210 leukemia [3]; 100 mg/kg): 300% and 254% | cures in test at specified dose (L1210 leukemia [3]; 100 mg/kg): 5 and 3 | curative, share of test mice (L1210 leukemia [3]; 100 mg/kg i.p. daily for 9 days, s.c. L1210): at least 50% | Treated/Control percent (L1210 leukemia [3]; 200 mg/kg): (-) | cures/total (L1210 leukemia [3]; [7]): 5/6 and 3/6 | increase in life-span (% ILS) (L1210 leukemia [3]; [7]): > 200% and > 154% | increases in life span by treatment and route (in words) (L1210 leukemia [4]; all treatments and routes, exceptions tests A and G (i.p. and i.v. one day, one injection)): increases in life span were noted using all treatments and routes of administration save for the i.p. and i.v. one day, one injection treatments | substantial increases in life span (% ILS) (L1210 leukemia [4]; each route and schedule save single treatment i.p. and i.v.): > 25% | toxicity (in words) (L1210 leukemia [4]; highest dose in each schedule, exception test F (i.p. every three hours on days one, five and nine)): toxicity was noted with the highest dose in each treatment schedule except for that involving i.p. administration every three hours on days one, five and nine of a nine day test | cures (L1210 leukemia [4]; test C: daily i.p., five days, 45 mg/kg/injection): 5 | increase in life span (% ILS) (L1210 leukemia [4]; test C: daily i.p., five days, 45 mg/kg/injection, total 225 mg/kg): 471% | cures (L1210 leukemia [4]; test I: oral daily for nine days, 124 mg/kg/injection): 4 | increase in life span (% ILS) (L1210 leukemia [4]; test I: oral daily for nine days, 124 mg/kg/injection, cumulative 1116 mg/kg): 452%
